The assay has as its target human PDE4B1 (Homo sapiens (Human), UniProt Q07343). The assay can be described thus: cAMP HTRF assay to determine the activity of hPDE4B1. In kind it is biochemical. The conditions noted are these: IC50 inhibition of PDE4B; human recombinant PDE4B1, cAMP HTRF assay. The essentials:
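Recombinant human PDE4B1 expressed in Sf9 cells (4.8 U) was incubated with 40 nM cAMP for 30 min at room temperature in Tris buffer, pH 7.8, with MgCl2, DTT and Tween 20. HTRF detection of remaining cAMP followed, with 1 mM IBMX stop, read 60 min later as the 665/620 nm ratio. Results are % inhibition versus control.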
A general note: In TR-FRET formats the signal depends on donor and acceptor labels being close together.
human PDE4B1, sequence (Q07343 whole entry): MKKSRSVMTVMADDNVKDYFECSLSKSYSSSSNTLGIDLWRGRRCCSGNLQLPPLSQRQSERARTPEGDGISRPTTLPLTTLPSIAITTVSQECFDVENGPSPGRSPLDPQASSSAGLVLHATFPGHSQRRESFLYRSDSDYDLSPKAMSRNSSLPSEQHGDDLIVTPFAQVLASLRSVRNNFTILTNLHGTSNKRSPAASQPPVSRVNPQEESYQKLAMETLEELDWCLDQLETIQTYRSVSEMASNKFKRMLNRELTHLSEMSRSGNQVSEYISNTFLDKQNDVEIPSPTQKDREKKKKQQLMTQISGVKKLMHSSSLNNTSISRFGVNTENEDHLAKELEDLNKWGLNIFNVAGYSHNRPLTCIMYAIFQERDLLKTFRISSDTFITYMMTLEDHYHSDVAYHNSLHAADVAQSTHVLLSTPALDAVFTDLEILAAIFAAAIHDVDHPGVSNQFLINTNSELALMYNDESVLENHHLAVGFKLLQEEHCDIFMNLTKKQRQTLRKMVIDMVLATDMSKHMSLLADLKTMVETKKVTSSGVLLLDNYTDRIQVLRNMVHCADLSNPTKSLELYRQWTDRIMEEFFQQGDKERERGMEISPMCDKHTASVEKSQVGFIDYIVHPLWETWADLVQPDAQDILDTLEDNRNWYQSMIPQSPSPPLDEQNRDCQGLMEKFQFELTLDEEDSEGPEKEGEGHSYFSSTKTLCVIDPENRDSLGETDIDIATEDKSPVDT
In general, IC50 refers to the concentration that inhibits the measured activity by half. For `CN(CC1OCCO1)C(=O)c1ccc2c(c1)N(c1ncc(-c3ccccc3F)cn1)CC21CC1` [Compound 87, N-([1,3]Dioxolan-2-yl-methyl)-1-[5-(2-fluorophenyl)-pyrimidin-2-yl]-N-methyl-spiro[1,2-dihydro-indole-3,1′-cyclopropane]-6-carboxylic acid amide], the IC50 was 0.1 to 1 µM.
Take `CN(C(=O)c1ccc2c(c1)N(c1ncc(-c3ccccc3F)cn1)CC21CC1)c1ccncc1` [Compound 88, 1-[5-(2-Fluorophenyl)-pyrimidin-2-yl]-N-methyl-N-pyridin-4-yl-spiro[1,2-dihydro-indole-3,1′-cyclopropane]-6-carboxylic acid amide]: the IC50 fell in the range of 0.1 to 1 µM.
For the compound `O=C(c1ccc2c(c1)N(c1ncc(-c3ccccc3F)cn1)CC21CC1)N1CCC1` [Compound 89, (Azetidin-1-yl)-[1-[5-(2-fluorophenyl)-pyrimidin-2-yl]-spiro[1,2-dihydro-indole-3,1′-cyclopropane]-6-yl]-methanone], the IC50 lay within 0.1 to 1 µM.
Next, `CCN(C)C(=O)c1ccc2c(c1)N(c1ncc(-c3ccccc3F)cn1)CC21CC1` [Compound 90, N-Ethyl-1-[5-(2-fluorophenyl)-pyrimidin-2-yl]-N-methyl-spiro[1,2-dihydro-indole-3,1′-cyclopropane]-6-carboxylic acid amide]: 0.1 to 1 µM; `CN(Cc1ccco1)C(=O)c1ccc2c(c1)N(c1ncc(-c3ccccc3F)cn1)CC21CC1` [Compound 91, 1-[5-(2-Fluorophenyl)-pyrimidin-2-yl]-N-(furan-2-yl-methyl)-N-methyl-spiro[1,2-dihydro-indole-3,1′-cyclopropane]-6-carboxylic acid amide]: 0.1 to 1 µM; `COC[C@@H]1CCCN1C(=O)c1ccc2c(c1)N(c1ncc(-c3ccccc3F)cn1)CC21CC1` [Compound 92, [1-[5-(2-Fluorophenyl)-pyrimidin-2-yl]-spiro[1,2-dihydro-indole-3,1′-cyclopropane]-6-yl]-[(2S)-2-(methoxymethyl)-pyrrolidin-1-yl]-methanone]: 0.1 to 1 µM.
The value for `O=C(c1ccc2c(c1)N(c1ncc(-c3ccccc3F)cn1)CC21CC1)N1CCSCC1` [Compound 93, [1-[5-(2-Fluorophenyl)-pyrimidin-2-yl]-spiro[1,2-dihydro-indole-3,1′-cyclopropane]-6-yl]thiomorpholin-4-yl-methanone] was < 0.1 µM; that for `CN(CCO)C(=O)c1ccc2c(c1)N(c1ncc(-c3ccccc3F)cn1)CC21CC1` [Compound 95, 1-[5-(2-Fluorophenyl)-pyrimidin-2-yl]-N-(2-hydroxy-ethyl)-N-methyl-spiro[1,2-dihydro-indole-3,1′-cyclopropane]-6-carboxylic acid amide] was < 0.1 µM; that for `O=C(c1ccc2c(c1)N(c1ncc(-c3ccccc3F)cn1)CC21CC1)N1CCCC(O)C1` (centres unmarked) [Compound 96, [1-[5-(2-Fluorophenyl)-pyrimidin-2-yl]-spiro[1,2-dihydro-indole-3,1′-cyclopropane]-6-yl]-(3-hydroxy-piperidin-1-yl)-methanone] was < 0.1 µM.
Next, `O=C(c1ccc2c(c1)N(c1ncc(-c3ccccc3F)cn1)CC21CC1)N1CCCCC1CO` (centres unmarked) [Compound 97, [1-[5-(2-Fluorophenyl)-pyrimidin-2-yl]-spiro[1,2-dihydro-indole-3,1′-cyclopropane]-6-yl]-[2-(hydroxymethyl)-piperidin-1-yl]-methanone]: 1 to 10 µM; `O=C(c1ccc2c(c1)N(c1ncc(-c3ccccc3F)cn1)CC21CC1)N1CCC(CO)CC1` [Compound 98, [1-[5-(2-Fluorophenyl)-pyrimidin-2-yl]-spiro[1,2-dihydro-indole-3,1′-cyclopropane]-6-yl]-[4-(hydroxymethyl)-piperidin-1-yl]-methanone]: 0.1 to 1 µM; `CN(C)CCN(C)C(=O)c1ccc2c(c1)N(c1ncc(-c3ccccc3F)cn1)CC21CC1` [Compound 99, N-[2-(Dimethylamino)ethyl]-1-[5-(2-fluorophenyl)-pyrimidin-2-yl]-N-methyl-spiro[1,2-dihydro-indole-3,1′-cyclopropane]-6-carboxylic acid amide]: < 0.1 µM.
With `COC1CCN(C(=O)c2ccc3c(c2)N(c2ncc(-c4ccccc4F)cn2)CC32CC2)CC1` [Compound 100, [1-[5-(2-Fluorophenyl)-pyrimidin-2-yl]-spiro[1,2-dihydro-indole-3,1′-cyclopropane]-6-yl]-(4-methoxy-piperidin-1-yl)-methanone], the IC50 fell in the range of 0.1 to 1 µM.
Next, `CC1COCC(C)N1C(=O)c1ccc2c(c1)N(c1ncc(-c3ccccc3F)cn1)CC21CC1` (centres unmarked) [Compound 101, (3,5-Dimethyl-morpholin-4-yl)-[1-[5-(2-fluorophenyl)-pyrimidin-2-yl]-spiro[1,2-dihydro-indole-3,1′-cyclopropane]-6-yl]-methanone]: 0.1 to 1 µM.
Next, `CN(C(=O)c1ccc2c(c1)N(c1ncc(-c3ccccc3F)cn1)CC21CC1)C1CCOCC1` [Compound 102, 1-[5-(2-Fluorophenyl)-pyrimidin-2-yl]-N-methyl-N-tetrahydro-pyran-4-yl-spiro[1,2-dihydro-indole-3,1′-cyclopropane]-6-carboxylic acid amide]: 0.1 to 1 µM; `CC1COCCN1C(=O)c1ccc2c(c1)N(c1ncc(-c3ccccc3F)cn1)CC21CC1` (centres unmarked) [Compound 103, [1-[5-(2-Fluorophenyl)-pyrimidin-2-yl]-spiro[1,2-dihydro-indole-3,1′-cyclopropane]-6-yl]-(3-methyl-morpholin-4-yl)-methanone]: < 0.1 µM; `C[C@@H]1CN(C(=O)c2ccc3c(c2)N(c2ncc(-c4ccccc4F)cn2)CC32CC2)C[C@H](C)O1` [Compound 104, [(2R,6S)-2,6-dimethyl-morpholin-4-yl]-[1-[5-(2-fluorophenyl)-pyrimidin-2-yl]-spiro[1,2-dihydro-indole-3,1′-cyclopropane]-6-yl]-methanone]: < 0.1 µM.
Next, `CC1(C)CN(C(=O)c2ccc3c(c2)N(c2ncc(-c4ccccc4F)cn2)CC32CC2)CCO1` [Compound 105, (2,2-Dimethyl-morpholin-4-yl)-[1-[5-(2-fluorophenyl)-pyrimidin-2-yl]-spiro[1,2-dihydro-indole-3,1′-cyclopropane]-6-yl] methanone]: 0.1 to 1 µM; `O=C(c1ccc2c(c1)N(c1ncc(-c3ccccc3F)cn1)CC21CC1)N1CCS(=O)(=O)CC1` [Compound 106, (1,1-Dioxo-[1,4]thiazinan-4-yl)-[1-[5-(2-fluorophenyl)-pyrimidin-2-yl]-spiro[1,2-dihydro-indole-3,1′-cyclopropane]-6-yl]-methanone]: 0.1 to 1 µM.
As to `O=C(c1ccc2c(c1)N(c1ncc(-c3ccccc3F)cn1)CC21CC1)N1CC2CC1CN2` (centres unmarked) [Compound 107, (2,5-Diazabicyclo[2.2.1]heptan-2-yl)-[1-[5-(2-fluorophenyl)-pyrimidin-2-yl]-spiro[1,2-dihydro-indole-3,1′-cyclopropane]-6-yl]-methanone], the IC50 is < 0.1 µM.
Next, `N[C@@H]1CCN(C(=O)c2ccc3c(c2)N(c2ncc(-c4ccccc4)cn2)CC32CC2)C1` [Compound 108, [(3R)-3-Amino-pyrrolidin-1-yl]-[1-(5-phenyl-pyrimidin-2-yl)-spiro[1,2-dihydro-indole-3,1′-cyclopropane]-6-yl]methanone]: < 0.1 µM; `N#Cc1ccc(F)c(-c2cnc(N3CC4(CC4)c4ccc(C(=O)N5CCNCC5)cc43)nc2)c1` [Compound 109, 4-Fluoro-3-[2-[6-(piperazine-1-carbonyl)-spiro[1,2-dihydro-indole-3,1′-cyclopropane]-1-yl]-pyrimidin-5-yl]-benzonitrile]: < 0.1 µM.
The value for `CN(C)[C@@H]1CCN(C(=O)c2ccc3c(c2)N(c2ncc(-c4ccccc4F)cn2)CC32CC2)C1` [Compound 110, [(3R)-3-Dimethylamino-pyrrolidin-1-yl]-[1-[5-(2-fluorophenyl)-pyrimidin-2-yl]-spiro[1,2-dihydro-indole-3,1′-cyclopropane]-6-yl]-methanone] was 0.1 to 1 µM.
Turning to `O=C(c1ccc2c(c1)N(c1ncc(-c3ccccc3F)cn1)CC21CC1)N1CC2(CCNC2)C1` [Compound 111], the IC50 lay within 1 to 10 µM.
The value for `COc1ccc(C(N)=O)c(-c2cnc(N3CC4(CC4)c4ccc(C(=O)N5CCOCC5)cc43)nc2)c1` [Compound 113, 4-Methoxy-2-[2-[6-(morpholine-4-carbonyl)-spiro[1,2-dihydro-indole-3,1′-cyclopropane]-1-yl]-pyrimidin-5-yl]-benzamide] was 0.1 to 1 µM; that for `N[C@@H]1CCN(C(=O)c2ccc3c(c2)N(c2ncc(-c4cccc(F)c4F)cn2)CC32CC2)C1` [Compound 114, [(3R)-3-Amino-pyrrolidin-1-yl]-[1-[5-(2,3-difluoro-phenyl)-pyrimidin-2-yl]-spiro[1,2-dihydro-indole-3,1′-cyclopropane]-6-yl]-methanone] was < 0.1 µM.
Next, `N[C@H]1CCN(C(=O)c2ccc3c(c2)N(c2ncc(-c4ccccc4F)cn2)CC32CC2)C1` [Compound 115, [(3S)-3-Amino-pyrrolidin-1-yl]-[1-[5-(2-fluorophenyl)-pyrimidin-2-yl]-spiro[1,2-dihydro-indole-3,1′-cyclopropane]-6-yl]-methanone]: < 0.1 µM; `NC(=O)c1ccc(F)c(-c2cnc(N3CC4(CC4)c4ccc(C(=O)N5CCNCC5)cc43)nc2)c1` [Compound 116, 4-Fluoro-3-[2-[6-(piperazine-1-carbonyl)-spiro[1,2-dihydro-indole-3,1′-cyclopropane]-1-yl]-pyrimidin-5-yl]-benzamide]: < 0.1 µM; `NC(=O)c1cccc(-c2cnc(N3CC4(CC4)c4ccc(C(=O)N5CC[C@@H](N)C5)cc43)nc2)c1` [Compound 118, 3-[2-[6-[(3R)-3-Amino-pyrrolidine-1-carbonyl]-spiro[1,2-dihydro-indole-3,1′-cyclopropane]-1-yl]-pyrimidin-5-yl]-benzamide]: < 0.1 µM.
